Experimental data reported in patent publication US5912247A, “Quinazoline compound and anti-tumor agent containing said compound as an active ingredient” (Kanebo, Ltd., priority 1995, dated 1999).
Counter-ions that a name gives are not always drawn.

Tested on: Colon 26 solid tumor
Test: Inhibitory activity of dye accumulation in the solid tumor tissue (inhibition of the tumor blood flow)
Format: in vivo, Male BALB/c mice
Parameters: key to Inhibitory activity of dye accumulation into solid tumor: +: The average absorbance in the test group is significantly smaller than the average absorbance in the control group.; -: There is no significant difference in the average absorbance between the test group and the control group
Conditions: intravenous, Evans blue 1 hour after administration
Protocol: Inhibitory activity of dye accumulation in the solid tumor tissue (inhibition of the tumor blood flow): a) Materials: Test Animal: Male BALB/c mice (weighing 21-27 g, six mice per group) Tumor: Colon 26 solid tumor b) Test Method: Colon 26 solid tumor was cut in a size of about 1 mm square. The pieces of solid tumor were treated with a 0.25% collagenase solution and 0.02% deoxyribonuclease solution at 37° C. for 1.5 hour to give a cell suspension of colon 26 solid tumor cells. The cell suspension was adjusted to 3×10^6 cells/ml and the cell suspension (100 μl) was subcutaneously inoculated on the right back of male BALB/c mice. Ten days after the transplantation, the longitudinal size of the tumor was measured, and when the longitudinal size of the tumor reached about 10 mm, the mice were randomized. To the mice in test groups, the test compound was intravenously administered in an amount of 10 mg/kg or 1.25 mg/kg. The test compound was administered in the form of a solution in saline (in the test solution of Test Compound BF and BK, an equimolar amount of fumaric acid was further added, and in the test solution of Test Compound BN, an equimolar amount of hydrochloric acid was further added). To the mice in the control group, only saline was administered intravenously. One hour after the administration, 3% Evans blue-saline solution was injected intravenously via the tail vein of the mice in a volume of 0.1 ml per 10 g of the body weight of mouse, and 5 minutes later the mice were killed by luxation of the cervical vertebrae. After removing the tumor, the tumor was weighed. To extract Evans blue, the tumor was suspensed in 0.5% aqueous sodium sulfate (1.5 ml per 1 g of the tumor) and acetone (3.5 ml per 1 g of tumor), and then the tumor was cut into small pieces. After allowing to stand at room temperature overnight, the suspension were centrifuged at 3,000 rpm for 10 minutes to extract Evans blue, and the absorbance of the supernatant was read at 630 nm. […] (-): There is no significant difference in the average absorbance between the test group and the control group.

| SMILES | Inhibitory activity of dye accumulation into solid tumor (1.25 mg/kg) | Inhibitory activity of dye accumulation into solid tumor (10 mg/kg) |
| --- | --- | --- |
| O[C@@H]1[C@H](O)[C@@H](Oc2nc(N3CCNCC3)nc3ccccc23)C[C@H]1O [Compound AP, 4-[(1S,2S,3S,4R)-(2,3,4-Trihydroxycyclopentan-1-yl)oxy]-2-(1-piperazinyl)quinazoline 1/2 fumarate] | + | + |
| OC[C@H](O)[C@H](O)COc1nc(N2CCNCC2)nc2ccccc12 (racemic) [Compound BK, 4-[(2RS,3SR)-(2,3,4-Trihydroxybutan-1-yl)oxy]-2-(1-piperazinyl)quinazoline] | + | + |
| O[C@@H]1[C@@H](Oc2nc(N3CCNCC3)nc3ccccc23)CC[C@@H]1O (relative stereo) [Compound AL, 4-[(t-2,t-3-Dihydroxycyclopentan-r-1-yl)oxy]-2-(1-piperazinyl)quinazoline monoacetate] | + | + |
| CO[C@H]1C[C@@H](Oc2nc(N3CCNCC3)nc3ccccc23)[C@H](O)[C@@H]1O [Compound AS, 4-[(1R,2R,3S,4S)-(2,3-Dihydroxy-4-methoxy-cyclopentan-1-yl)oxy]-2-(1-piperazinyl)quinazoline 1/2 fumarate] | + | + |
| CC(=O)O.C[C@H](O)[C@H](C)Oc1nc(N2CCNCC2)nc2ccccc12 [Compound BD, 4-[(2S,3S)-(3-Hydroxybutan-2-yl)oxy]-2-(1-piperazinyl)quinazoline monoacetate] |  | + |
| Cl.OC[C@@H](O)[C@H](O)COc1nc(N2CCNCC2)nc2ccccc12 [Compound BM, 4-[(2R,3R)-(2,3,4-Trihydroxybutan-1-yl)oxy]-2-(1-piperazinyl)quinazoline monohydrochloride] | + | + |
| CC(=O)O.O[C@H]1COC[C@@H]1Oc1nc(N2CCNCC2)nc2ccccc12 [Compound AH, 4-[(3S,4S)-(4-Hydroxytetrahydrofuran-3-yl)oxy]-2-(1-piperazinyl)quinazoline monoacetate] | + | + |
| Cl.O[C@@H]1COC[C@H]1Oc1nc(N2CCNCC2)nc2ccccc12 [Compound AK, 4-[(3R,4R)-(4-Hydroxytetrahydrofuran-3-yl)-oxy]-2-(1-piperazinyl)quinazoline monohydrochloride] | + | + |
| CC(=O)O.O[C@@H]1COC[C@H]1Oc1nc(N2CCNCC2)nc2ccccc12 (relative stereo) [Compound AF, 4-[trans-(4-Hydroxytetrahydrofuran-3-yl)oxy]-2-(1-piperazinyl)quinazoline monoacetate] | + | + |
| CC(=O)O.OC1CCC(Oc2nc(N3CCNCC3)nc3ccccc23)C1 (stereo not shown) [Compound AC, 4-[(3-Hydroxycyclopentan-1-yl)oxy]-2-(1-piperazinyl)quinazoline monoacetate] | + | + |
| CC(=O)O.O[C@@H]1CCC[C@H]1Oc1nc(N2CCNCC2)nc2ccccc12 (relative stereo) [Compound AA, 4-[trans-(2-Hydroxycyclopentan-1-yl)oxy]-2-(1-piperazinyl)quinazoline monoacetate] | + | + |
| O[C@@H]1COC[C@H]1Oc1nc(N2CCNCC2)nc2ccccc12 [Compound AJ, 4-[(3R,4R)-(4-Hydroxytetrahydrofuran-3-yl)-oxy]-2-(1-piperazinyl)quinazoline 1/2 hydrochloride] | + | + |
| O[C@H]1CCC[C@@H]1Oc1nc(N2CCNCC2)nc2ccccc12 [Compound AD, 4-[(1S,2S)-(2-Hydroxycyclopentan-1-yl)oxy]-2-(1-piperazinyl)quinazolinemonoacetate] | + | + |
| CC(=O)O.OCC(O)COc1nc(N2CCNCC2)nc2ccccc12 (racemic) [Compound BB, 4-[(RS)-(2,3-Dihydroxypropyl)oxy]-2-(1-piperazinyl)quinazoline monoacetate] | + | + |
| Cl.OC[C@@H](O)CCOc1nc(N2CCNCC2)nc2ccccc12 [Compound BI, 4-[(3S)-(3,4-Dihydroxybutan-1-yl)oxy]-2-(1-piperazinyl)quinazoline monohydrochloride] | + | + |
| C[C@@H](O)[C@H](O)COc1nc(N2CCNCC2)nc2ccccc12 (racemic) [Compound BF, 4-[(2RS,3RS)-(2,3-Dihydroxybutan-1-yl)oxy]-2-(1-piperazinyl)quinazoline] | + | + |
| O[C@@H]1[C@H](O)[C@@H](O)C[C@H]1Oc1nc(N2CCNCC2)nc2ccccc12 [Compound AQ, 4-[(1R,2R,3R,4S)-(2,3,4-Trihydroxycyclopentan-1-yl)oxy]-2-(1-piperazinyl)quinazoline 1/2 fumarate] | + | + |
| CO[C@H]1C[C@@H](Oc2nc(N3CCNCC3)nc3ccccc23)[C@H](O)[C@@H]1O.Cl [Compound AT, 4-[(1R,2R,3S,4S)-(2,3-Dihydroxy-4-methoxy-cyclopentan-1-yl)oxy]-2-(1-piperazinyl)quinazoline mono-hydrochloride] | + | + |
| CC(=O)O.C[C@@H](O)[C@@H](C)Oc1nc(N2CCNCC2)nc2ccccc12 [Compound BE, 4-[(2R,3R)-(3-Hydroxybutan-2-yl)oxy]-2-(1-piperazinyl)quinazoline monoacetate] |  | + |
| CC(=O)O.OCCOc1nc(N2CCNCC2)nc2ccccc12 [Compound BA, 4-[(2-Hydroxyethyl)oxy]-2-(1-piperazinyl)-quinazoline monoacetate] | + | + |
| C[C@@H](O)[C@H](O)COc1nc(N2CCNCC2)nc2ccccc12.Cl [Compound BH, 4-[(2R,3R)-(2,3-Dihydroxybutan-1-yl)oxy]-2-(1-piperazinyl)quinazoline monohydrochloride] | + | + |
